Here are results for 43 compounds from patent US11661410B2 (GLOBAL BLOOD THERAPEUTICS, INC., priority 2017, dated 2023).

Like-named read-outs stand apart in the source and are kept apart here.

One assay has as its target muscarinic M2 receptor (Homo sapiens (Human), UniProt P08172). Briefly: Safety pharmacological profiling: muscarinic M2 receptor ligand binding. Particulars: compound at 10 μM, in duplicate; ligand binding to cell membranes; read-out: Muscarinic M2 percent inhibition.
The target in a further assay is G9a (Homo sapiens (Human), UniProt Q96KQ7). Briefly: G9a AlphaLISA enzymatic activity assay. In kind it is biochemical. Background: Bead proximity is the source of the signal in Alpha formats.
Chain of G9a (Q96KQ7 whole entry): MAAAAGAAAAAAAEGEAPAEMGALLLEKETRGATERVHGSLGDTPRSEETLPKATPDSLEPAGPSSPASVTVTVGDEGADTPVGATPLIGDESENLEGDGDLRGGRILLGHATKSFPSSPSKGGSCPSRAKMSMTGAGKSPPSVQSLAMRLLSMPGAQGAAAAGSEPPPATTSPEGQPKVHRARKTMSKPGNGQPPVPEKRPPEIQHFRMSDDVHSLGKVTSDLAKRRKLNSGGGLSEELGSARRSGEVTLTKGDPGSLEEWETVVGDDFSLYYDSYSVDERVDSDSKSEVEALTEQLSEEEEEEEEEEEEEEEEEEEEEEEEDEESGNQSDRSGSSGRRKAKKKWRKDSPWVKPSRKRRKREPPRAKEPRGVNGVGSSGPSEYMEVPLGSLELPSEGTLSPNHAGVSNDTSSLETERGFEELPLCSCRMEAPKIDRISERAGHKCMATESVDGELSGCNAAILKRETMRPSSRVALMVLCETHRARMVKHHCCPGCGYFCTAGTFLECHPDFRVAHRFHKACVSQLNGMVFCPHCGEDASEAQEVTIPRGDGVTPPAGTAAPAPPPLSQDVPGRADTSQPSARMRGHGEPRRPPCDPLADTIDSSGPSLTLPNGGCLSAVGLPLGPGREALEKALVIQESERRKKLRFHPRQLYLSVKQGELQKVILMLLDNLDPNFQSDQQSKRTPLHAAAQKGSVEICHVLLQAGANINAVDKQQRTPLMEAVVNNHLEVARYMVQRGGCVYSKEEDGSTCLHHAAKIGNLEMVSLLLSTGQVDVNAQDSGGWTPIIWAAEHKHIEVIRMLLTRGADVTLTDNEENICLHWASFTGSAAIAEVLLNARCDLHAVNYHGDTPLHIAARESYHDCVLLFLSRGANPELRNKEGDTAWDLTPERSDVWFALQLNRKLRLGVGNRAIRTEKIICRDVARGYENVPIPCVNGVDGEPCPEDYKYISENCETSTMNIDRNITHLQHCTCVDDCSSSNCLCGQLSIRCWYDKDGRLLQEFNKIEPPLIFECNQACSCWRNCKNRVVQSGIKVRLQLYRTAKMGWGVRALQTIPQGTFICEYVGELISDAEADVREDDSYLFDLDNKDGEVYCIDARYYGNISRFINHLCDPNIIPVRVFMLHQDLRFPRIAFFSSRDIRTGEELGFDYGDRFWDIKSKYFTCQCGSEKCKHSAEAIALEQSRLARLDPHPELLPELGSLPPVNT
Assay [1] deals with mu (μ) opiate (OP3) receptor (Homo sapiens (Human), UniProt P35372). Briefly: biochemical. Type of assay: binding. The conditions noted are these: read-out: Mu Opiate percent inhibition.
The mark [2] stands for this setting: G9a AlphaLISA, negative log of the IC50 value in molar.

Chain of muscarinic M2 receptor (P08172 whole entry): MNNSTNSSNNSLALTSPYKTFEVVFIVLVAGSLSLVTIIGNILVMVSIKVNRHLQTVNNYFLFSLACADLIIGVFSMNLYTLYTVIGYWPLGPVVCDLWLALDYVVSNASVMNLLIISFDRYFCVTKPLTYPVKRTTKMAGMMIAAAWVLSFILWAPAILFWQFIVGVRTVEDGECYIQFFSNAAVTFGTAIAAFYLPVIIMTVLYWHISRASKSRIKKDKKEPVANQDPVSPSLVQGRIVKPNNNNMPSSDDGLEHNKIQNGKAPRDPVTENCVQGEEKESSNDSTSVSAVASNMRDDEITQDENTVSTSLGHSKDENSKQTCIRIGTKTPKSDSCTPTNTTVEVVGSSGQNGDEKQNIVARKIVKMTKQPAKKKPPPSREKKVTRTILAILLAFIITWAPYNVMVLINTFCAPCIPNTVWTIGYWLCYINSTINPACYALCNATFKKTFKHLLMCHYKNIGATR

Regarding `COc1cc2nc3c(c(NC4CCN(C(C)C)CC4)c2cc1OC)CCC3`, the inhibition (as a rule, the relative decrease from the control value, in per cent) at 10 µM at muscarinic M2 receptor worked out at 78%.
Consider `CCN1CCC[C@@H](Nc2c3c(nc4cc(OC)c(OC)cc24)CCC3)CC1` [Example 64, (4R)-N-{6,7-dimethoxy-1H,2H,3H-cyclopenta[b]quinolin-9-yl}-1-ethylazepan-4-amine], for which the negative-log IC50 (pIC50) – broadly, the negative decadic logarithm of the IC50, by convention in mol/L – against G9a (setting [2]) was 7.6.
At G9a (setting [2]), `COc1cc2nc3c(c(NCC4CCNC4)c2cc1OC)CCC3` (stereo not shown) [Example 65, 6,7-dimethoxy-N-[(pyrrolidin-3-yl)methyl]-1H,2H,3H-cyclopenta[b]quinolin-9-amine] displayed a negative logarithm of the IC50 (pIC50) of 7.4.
On to `COc1cc2nc3c(c(NCC4CCCN4)c2cc1OC)CCC3` (stereo not shown) [Example 66, 6,7-dimethoxy-N-[(pyrrolidin-2-yl)methyl]-1H,2H,3H-cyclopenta[b]quinolin-9-amine], for which, on G9a (setting [2]), the pIC50 is 7.3.
For `COc1cc2nc3c(c(NCC4CCNCC4)c2cc1OC)CCC3` [Example 67, 6,7-dimethoxy-N-[(piperidin-4-yl)methyl]-1H,2H,3H-cyclopenta[b]quinolin-9-amine], the pIC50 at G9a (setting [2]) is 7.
The same measure, in the same setting: the value for `COc1cc2nc3c(c(NC[C@@H]4CCCNC4)c2cc1OC)CCC3` [Example 68, 6,7-dimethoxy-N-{[(3R)-piperidin-3-yl]methyl}-1H,2H,3H-cyclopenta[b]quinolin-9-amine] was 6.9; that for `COc1cc2nc3c(c(NC[C@H]4CCCNC4)c2cc1OC)CCC3` [Example 69] was 7.1.
Same read-out and setting: the value for `COc1cc2nc3c(c(NC4CCN(C(C)C)CC4)c2nc1OC)CCC3` [Example 134, N-[2,3-dimethoxy-6H,7H,8H-cyclopenta[b]1,5-naphthyridin-9-yl]-1-(propan-2-yl)piperidin-4-amine] was 6.8.
Still for that read-out and setting: under `COc1cc2nc3c(c(N[C@@H]4CCCNC4)c2nc1OC)CCC3` [Example 149, (3R)-N-[2,3-dimethoxy-6H,7H, 8Hcyclopenta[b]1,5naphthyridin-9-yl]piperidin-3-amine] stands 7.2.
In turn, `COc1cc2nc3c(c(N[C@@H]4CCCNCC4)c2nc1OC)CCC3` [Example 163, (4R)-N-[2,3-dimethoxy-6H,7H,8H-cyclopenta[b]1,5-naphthyridin-9-yl] azepan-4-amine] registered a negative-log IC50 (pIC50) on G9a of 6.8.
On to `COc1cc2nc3c(c(N[C@@H]4CCCN(C)C4)c2nc1OC)CCC3` [Example 164, (3R)-N-[2,3-dimethoxy-6H,7H,8H-cyclopenta[b]1,5-naphthyridin-9-yl]-1-methylpiperidin-3-amine], for which, on G9a (setting [2]), the pIC50 was 6.2.
Same read-out and setting: the value for `COc1cc2nc3c(c(N[C@@H]4CCCN(C)CC4)c2nc1OC)CCC3` [Example 165, (4R)-N-{2,3-dimethoxy-6H,7H,8H-cyclopenta[b]1,5-naphthyridin-9-yl}-1-methylazepan-4-amine] was 7; that for `COc1cc2nc3c(c(N[C@H]4CNC[C@@H](C)C4)c2cc1OC)CCC3` [Example 286, (3R,5S)-N-{6,7-dimethoxy-1H,2H,3H-cyclopenta[b]quinolin-9-yl}-5-methylpiperidin-3-amine] was 8.
The same measure, in the same setting: the value for `COc1cc2nc3c(c(N[C@@H]4CCCCNC4)c2nc1OC)CCC3` [Example 402] was 7.1.
The same measure, in the same setting: the value for `COc1cc2nc3c(c(NCCNC(C)C)c2cc1OC)CCC3` [Example 403, 6,7-dimethoxy-N-{2-[(propan-2-yl)amino]ethyl}-1H,2H,3H-cyclopenta[b]quinolin-9-amine] was 7.5.
Take `COc1cc2nc3c(c(N[C@@H]4CCCCN(C)C4)c2nc1OC)CCC3` [Example 404, (3R)-N-[2,3-dimethoxy-6H,7H,8H-cyclopenta[b]1,5-naphthyridin-9-yl]-1-methylazepan-3-amine]: on G9a (setting [2]), the pIC50 is 6.6.
Regarding `[2H]C([2H])([2H])Oc1cc2nc3c(c(N[C@@H]4CCCNC4)c2cc1OC([2H])([2H])[2H])CCC3` [Example 405, (3R)-N-[6,7-di(2H3)methoxy-1H,2H,3H-cyclopenta[b]quinolin-9-yl]piperidin-3-amine], half-maximal inhibition at G9a (setting [2]) (IC50) was put at 0.0126 µM.
On the same count and under the same terms, the value for `CCOc1cc2nc3c(c(N[C@@H]4CCCNC4)c2cc1OCC)CCC3` [Example 406, (3R)-N-[6,7-di(2H3)ethoxy-1H,2H,3H-cyclopenta[b]quinolin-9-yl]piperidin-3-amine] was over 10 µM.
As for `CCOc1cc2nc3c(c(N[C@@H]4CCCNC4)c2cc1OC)CCC3` [Example 407, (3R)-N-{6-ethoxy-7-methoxy-1H,2H,3H-cyclopenta[b]quinolin-9-yl}piperidin-3-amine], the pIC50 against G9a (setting [2]) worked out at 7.
On the same count and under the same terms, under `COc1cc2nc3c(c(N[C@@H]4CNC[C@H](C)C4)c2cc1OC)CCC3` [Example 408, (3S,5R)-N-{6,7-dimethoxy-1H,2H,3H-cyclopenta[b]quinolin-9-yl}-5-methylpiperidin-3-amine] stands 6.9; under `COc1cc2nc3c(c(N[C@H]4CNC[C@H](C)C4)c2cc1OC)CCC3` [Example 409, (3R,5R)-N-{6,7-dimethoxy-1H,2H,3H-cyclopenta[b]quinolin-9-yl}-5-methylpiperidin-3-amine], 7.9.
As to `COc1cc2nc3c(c(N[C@H]4CNCC(F)(F)C4)c2cc1OC)CCC3` [Example 410, (3R)-N-{6,7-dimethoxy-1H,2H,3H-cyclopenta[b]quinolin-9-yl}-5,5-difluoropiperidin-3-amine], the IC50 – broadly, the concentration at which inhibition is half-maximal – against G9a (setting [2]) was over 10 µM.
For `COc1cc2nc3c(c(NC[C@@H]4C[C@H](F)CN4)c2cc1OC)CCC3` [Example 411, N-{[(2S,4S)-4-fluoropyrrolidin-2-yl]methyl}-6,7-dimethoxy-1H,2H,3H-cyclopenta[b]quinolin-9-amine], on G9a (setting [2]), the pIC50 came to 6.3.
Same read-out and setting: under `COc1cc2nc3c(c(N[C@H]4CNC[C@@H](F)C4)c2cc1OC)CCC3` [Example 412, (3R,5S)-N-{6,7-dimethoxy-1H,2H,3H-cyclopenta[b]quinolin-9-yl}-5-fluoropiperidin-3-amine] stands 6.5.
Compound `COc1cc2nc3c(c(N[C@@H]4CNCC(F)(F)C4)c2cc1OC)CCC3` [Example 413, (3S)-N-{6,7-dimethoxy-1H,2H,3H-cyclopenta[b]quinolin-9-yl}-5,5-difluoropiperidin-3-amine] gave an IC50 against G9a (setting [2]) of over 10 µM.
Regarding `COc1cc2nc3c(c(N[C@H]4CNCC(C)(C)C4)c2cc1OC)CCC3` [Example 414, (3R)-N-{6,7-dimethoxy-1H,2H,3H-cyclopenta[b]quinolin-9-yl}-5,5-dimethylpiperidin-3-amine], at G9a (setting [2]), the pIC50 is 7.2.
For `COc1cc2nc3c(c(N[C@@H]4CNCC(C)(C)C4)c2cc1OC)CCC3` [Example 415, (3S)-N-{6,7-dimethoxy-1H,2H,3H-cyclopenta[b]quinolin-9-yl}-5,5-dimethylpiperidin-3-amine], the IC50 against G9a (setting [2]) is over 10 µM.
`COc1cc2nc3c(c(N[C@H]4CNC[C@H](F)C4)c2cc1OC)CCC3` [Example 416, (3R,5R)-N-{6,7-dimethoxy-1H,2H,3H-cyclopenta[b]quinolin-9-yl}-5-fluoropiperidin-3-amine] came in with a negative logarithm of the IC50 (pIC50) against G9a (setting [2]) of 6.9.
For `COc1cc2c(NC(C)C)c3c(nc2cc1OCCCN1CCCC1)CCC3` [drawing 582], the inhibition at 10 µM at muscarinic M2 receptor came out at 51%.
The same measure, in the same setting: under `CCNc1c2c(nc3cc(OCCCN4CCCC4)c(OC)cc13)CCC2` [drawing 583] stands 62%; under `COc1cc2nc3c(c(NCC4CNC4)c2cc1OC)CCC3` [drawing 585], 65%; under `COc1cc2nc3c(c(N[C@@H]4CCCNC4)c2cc1OC)CCC3` [drawing 586], 76%.
On the same count and under the same terms, under `COc1cc2nc3c(c(NC4CCNCC4)c2cc1OC)CCC3` [drawing 587] stands 62%.
The same measure, in the same setting: the value for `COc1cc2nc3c(c(N[C@H]4CNC[C@@H](C)C4)c2cc1OC)CCC3` [drawing 588] was 75%; that for `COc1cc2nc3c(c(N[C@@H]4CCCCNC4)c2cc1OC)CCC3` [drawing 589] was 80%.
As to `COc1cc2c(NC(C)C)c3c(nc2cc1OCCCN1CCCC1)CCC3` [drawing 590], the inhibition at 10 µM in assay [1] came out at 92%.
The same measure, in the same setting: under `CCNc1c2c(nc3cc(OCCCN4CCCC4)c(OC)cc13)CCC2` [drawing 591] stands 92%; under `COc1cc2nc3c(c(NCC4CNC4)c2cc1OC)CCC3` [drawing 593], 12%; under `COc1cc2nc3c(c(N[C@@H]4CCCNC4)c2cc1OC)CCC3` [drawing 594], 44%.
For the compound `COc1cc2nc3c(c(NC4CCNCC4)c2cc1OC)CCC3` [drawing 595], the inhibition at 10 µM in assay [1] stood at 48%.
On to `COc1cc2nc3c(c(N[C@H]4CNC[C@@H](C)C4)c2cc1OC)CCC3` [drawing 596], for which, in assay [1], the inhibition at 10 µM amounted to 23%.
Same read-out and setting: under `COc1cc2nc3c(c(N[C@@H]4CCCCNC4)c2cc1OC)CCC3` [drawing 597] stands 73%.
On to “N-[(azetidin-3-yl)methyl]-6,7-dimethoxy-1H,2H,3H-cyclopenta[b]quinolin-9-amine—2HCl [Example 8]”, for which, at G9a, the pIC50 is 7.27.
